# In patent US6287813A, “Antibiotic-based gene regulation system” (Cistronics Cell Technology GmbH, priority 1999, dated 2001):
# Columns and labels:
# PIT2 (Pip-p65)/PPIR = biological target: T1, PIT2 (Pip-p65)/PPIR (Streptomyces coelicolor, UniProt Q9ADN3); assay: SEAP reporter assay, CHO-K1 cotransfected with pMF206 (PIT2; Pip-p65) and pMF172 (PPIR-SEAP); format: cell-based; conditions: +PI (2 μg/ml), 48 hr post transfection
# T1 construct: pMF206 with pMF172 (PPIR-SEAP) in CHO-K1
# T1 sequence (Q9ADN3 1-252): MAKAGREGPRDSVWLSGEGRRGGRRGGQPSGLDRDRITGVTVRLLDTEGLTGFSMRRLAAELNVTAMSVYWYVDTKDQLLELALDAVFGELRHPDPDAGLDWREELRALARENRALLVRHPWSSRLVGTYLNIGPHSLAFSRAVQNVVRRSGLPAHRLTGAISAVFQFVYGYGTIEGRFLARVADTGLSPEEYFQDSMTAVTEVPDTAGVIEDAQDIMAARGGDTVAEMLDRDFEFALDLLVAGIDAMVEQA
# Text: PIT2, the fusion protein of Pip and the p65 transactivation domain of the human NF-κB transcription activator was cloned in a three step procedure: (i) The p65 domain of the human NF-κB transcription activator was amplified from pSG424-p65 (kindly provided by H. Hauser, GBF, Braunschweig, Germany) with oligos OMF97:
# Chinese hamster ovary cells (CHO-K1, ATCC: CCL 61), Baby hamster kidney cells (BHK-21, ATCC: CRL-8544), and HeLa cells (ATCC: CRL-7923) as well as stable cell lines CHO-PIT1, CHO-PIT2, CHO-TWIN195, CHO-TWIN1108 and CHO-PIT1-SEAP were cultured as described before (Fussenegger et al., 1998, Nat. Biotechnol. 16,468-472) in the presence of appropriate antibiotics: G418 400 μg/ml; zeocin 100 μg/ml. Optimized CaPO4 protocols were used for high efficiency transient transfection of all cell lines (id). Transient transfected cells were routinely analyzed after 48 h for GFP or SEAP expression using fluorescence microscopy and p-nitrophenolphosphate-based light absorbance timecourse, respectively, as described before (Fussenegger et al., 1998, Nat. Biotechnol. 16, 468-472; Berger et al., 1988, Gene 66, 1-10 b). […]
# In addition, pMF206 (PIT2; Pip-p65) was cotransfected with pMF172 (PPIR -SEAP) and the SEAP readout in the absence and presence of PI (2 μg/ml) was directly compared to CHO-K1 cells cotransfected with pMF156 (PIT; Pip-VP16) and pMF172 (PPIR -SEAP). […]
# PIT/PPIR system = biological target: T2, PIT/PPIR system (Streptomyces coelicolor, UniProt Q9ADN3); assay: SEAP reporter assay, CHO-K1 cotransfected with pMF156 (PIT) and pMF172 (PPIR-SEAP); format: cell-based
# T2 construct: pMF156/pTWIN in CHO cells, PPIR-SEAP or GFP reporter
# T2 sequence (Q9ADN3 1-252): T1 sequence (Q9ADN3 1-252)
# Experimental: PIT, the fusion protein of Pip and the VP16 C-terminal transactivation domain of Herpes simplex (Triezenberg et al., 1988, Genes Dev. 2, 718-729) was constructed by amplifying the S. coelicolor Pip from pGemT::Epip4 with oligos:
# Chinese hamster ovary cells (CHO-K1, ATCC: CCL 61), Baby hamster kidney cells (BHK-21, ATCC: CRL-8544), and HeLa cells (ATCC: CRL-7923) as well as stable cell lines CHO-PIT1, CHO-PIT2, CHO-TWIN195, CHO-TWIN1108 and CHO-PIT1-SEAP were cultured as described before (Fussenegger et al., 1998, Nat. Biotechnol. 16,468-472) in the presence of appropriate antibiotics: G418 400 μg/ml; zeocin 100 μg/ml. Optimized CaPO4 protocols were used for high efficiency transient transfection of all cell lines (id). Transient transfected cells were routinely analyzed after 48 h for GFP or SEAP expression using fluorescence microscopy and p-nitrophenolphosphate-based light absorbance timecourse, respectively, as described before (Fussenegger et al., 1998, Nat. Biotechnol. 16, 468-472; Berger et al., 1988, Gene 66, 1-10 b). For construction of stable CHO-PIT and CHO-TWIN cell lines, CHO-K1 was cotransfected either with pMF156 or pTWIN1 and pSV2neo carrying the G418 resistance gene. CHO-PIT1-SEAP was constructed by cotransfection of pMF172 and pZeoSV2 (Invitrogen). For assessment of dose-response characteristics of PPIR -regulated gene expression, CHO-PIT1-SEAP were cultured at cell densities of 150,000/ml for 48 at various PI concentrations. The mixed populations were cloned using FACS-mediated single-cell-sorting (FACStar^Plus; Beckton Dickinson). Gel retardation assay were performed as described (Salah-Bey et al., 1995, supra) using Pip purified from an overproducing strain of E. coli. Pip (0.02 pmol) was titrated with a range of antibiotic concentrations in a reaction volume of 20 μl. Protein solutions were pre-incubated at room temperature for 15 min. in the absence or presence of PI or its derivative quinupristin in a buffer containing 10 mM Tris (pH 7.8), 10 mM MgCl2, 300 mM NaCl, 2 mM DTT and 10% glycerol. An EcoRI-HindII PPTR fragment (0.02 pmol) containing three Pip binding sites (radiolabelled using α-^32 P)dATP was added and incubated for 15 min. To minimize nonspecific protein binding and increase protein stability, 2 μg of poly dIdC and 20 μg BSA were included in the incubation mix. Protein-DNA complexes were separated on 5% polyacrylamide,TBE gels and visualized by autoradiography.
# Five different sources of pristinamycin were used: The two therapeutic forms Pyostacin™ and Synercid™, pristinamycin discs, and the single compounds pristinamycin I (PI) and pristinamycin II (PII). Pyostacin™ pills (500 mg) were ground in a mortar and solubilized in DMSO or water at a stock concentration of 50 mg/ml. Synercid™ (RP 59500; Lot Nr. CB06253) was provided by Aventis in injection-ready vials containing 500 mg lyophilized antibiotic which was reconstituted in 5 ml of 5% glucose solution and frozen at -20° C. Individual pristinamycin compounds PI and PII (identical to virginiamycin M1 (VM1); Sigma ref. V2753) were solubilized in DMSO at a concentration of 50 mg/ml and kept at -20° C. Antibiotic discs containing 15 μg pristinamycin or virginiamycin (bioMerieux, ref. 54552; bioMerieux, ref. 54612) were soaked in 1 ml cell culture medium at 4i C for up to 24 h. […] The concentration of individual streptogramin components was calculated based on their fixed 70:30 ratio (w/w; PII/VM1 /dalfopristin: PI/VS1 /quinupristin). […]
substance,measurement,setting,value
pristinamycin I [PI],SEAP readout (slope of the p-nitrophenolphosphate-based light absorbance time courses),PIT2 (Pip-p65)/PPIR,0.31 ± 0.003
same,SEAP readout (slope of the p-nitrophenolphosphate-based light absorbance time courses),"PIT/PPIR system; +PI (2 μg/ml), 48 hr post transfection, CHO + pMF156 + pMF172",0.03 ± 0.002
same,Downregulation of PIT/PPIR-mediated SEAP expression,"PIT/PPIR system; CHO-K1, 2 μg/ml",effective downregulation
same,SEAP Production (%),"PIT/PPIR system; inducer 2 μg/ml, assayed 48 hr later, no inducer = 100",7.90 ± 1.2%
